What was measured:
Format in all cases: cell-based
[1] = tested on: H1975 cells; test: Annexin-V/PI apoptosis assay by flow cytometry, H1975
Protocol: (§1) Apoptosis assay was performed on gefitinib-resistant H1650 and H1975 cells. The cells (1.0×10^5 cells/well) were allowed to attach to a 6-well plate for 24 h, and the cells were treated with the various concentrations of the compound of Formula (IIa) for additional 24 h. At the end of incubation, the cells were harvested by trypsinization and washed twice with ice-cold PBS. After centrifugation and removal of the supernatants, cell pellets were resuspended in 100 μL 1×Annexin-binding buffer, 2 μL Annexin-V FITC and 2 μL PI (100 μg/ml) were added and incubated in the dark at room temperature for 15 min before further addition of 400 μL of 1×Annexin-binding buffer. The stained cells were analyzed quantitatively using a flow cytometer (BD Biosciences, San Jose, Calif., USA). Data were analyzed by Flow Jo software. FIG. 2A to 2E show fluorescence images of H1650 cells and FIG. 3A to 3E show fluorescence images of H1975 cells having been treated with the compound of Formula (IIa) at 1 μM, 2 μM, 3 μM and 4 μM; and DMSO (control, negative control).
(§2) Apoptosis assay and analysis with flow cytometer was performed as described in Example 1B with H1650 and H1975 cells and treatment with 4 μM of the compound of Formula (IIa) for 30 min in the presence or absence of N-acetylcystein (NAC) or treatment with DMSO (control, negative control). […]

[2] = tested on: cleaved Caspase-3 and cleaved PARP in H1975 cells; test: Western blot of cleaved caspase-3 and cleaved PARP, H1975; conditions: 24 h
Protocol: (§3) The H1650 or H1975 cells were planted on 6-well plates, allowed to attach for 24 h, and treated with 4 μM of the compound of Formula (IIa) with or without NAC (10 mM) for 24 h. Cells were washed twice with cold PBS then lysed in RIPA lysis buffer containing protease and phosphatase inhibitors. Protein concentration of the cell lysates was measured using the Bio-Rad protein Assay kit (Bio-Rad, 7 Philadelphia, Pa., USA). After equalizing the protein concentrations of the samples, 5× laemmli buffer was added and the samples were boiled at 100° C. for 5 min. Equal amounts of protein samples (30 μg) were subjected to SDS-PAGE of a 10% gel. The separated proteins were transferred to a nitrocellulose (NC) membrane, which was then exposed to 5% non-fat dried milk in TBS containing 0.1% Tween (0.1% TBST) for 1 h at room temperature, followed by overnight incubation at 4° C. with primary antibodies. After washing three times by TBST (5 mins/time), the membranes were incubated for 1 h at room temperature with secondary fluorescent antibodies (1:10000 dilutions) to rabbit or mouse. The signal intensity of the membranes was detected by an LI-COR Odessy scanner (Belfast, Me., USA).

[3] = tested on: cleaved Caspase-3 and cleaved PARP in H1650 cells; test: Western blot of cleaved caspase-3 and cleaved PARP, H1650; conditions: 24 h
Protocol: as §3

[4] = tested on: CCD-19LU; test: MTT cytotoxicity assay, non-cancerous lung fibroblast cells; conditions: 24 h treatment
Protocol: To show the highly cytotoxic properties of the present compound of Formula (IIa), H1650, HCC827 and H1975 NSCLC cells and non-cancerous lung fibroblast cells (CCD-19LU) were treated with the compound of Formula (IIa) and respective effects were observed. H1650 cells are adenocarcinoma cells harboring an E746-A750del deletion in exon 19 and other driver mutation genes which lead to a resistance against gefitinib. HCC827 cells are adenocarcinoma cells harboring high level EGFR amplification and an E746-A750del deletion in exon 19 without gefitinib-resistance. H1975 cells are adenocarcinoma cells harboring L858R substitution in exon 21 and a T790M substitution in exon 20 which is directly associated with resistance against gefitinib. The cells were obtained from the American Type Culture Collection (ATCC) and cultured in environment of 5% CO2 at 37° C. in RPMI-1640 medium supplemented with 10% fetal bovine serum (FBS), 100 units/mL penicillin, and 100 μg/mL streptomycin. The compound of Formula (IIa) was dissolved in DMSO. […] The absorbance was measured at 570 nm by a microplate reader (Tecan, Morrisville, N.C., USA).
The cell viability was calculated relative to untreated controls, with results based on at least three independent experiments.

[5] = tested on: H1650 cells; test: ROS generation, H1650; conditions: 4 μM, 30 min treatment
Protocol: (§4) Apoptosis assay and analysis with flow cytometer was performed as described in Example 1B with H1650 and H1975 cells and treatment with 4 μM of the compound of Formula (IIa) for 30 min in the presence or absence of N-acetylcystein (NAC) or treatment with DMSO (control, negative control). FIG. 4A to 4D show fluorescence images of H1650 cells and FIG. 5A to 5D show fluorescence images of H1975 cells.
(§5) ROS generation was considered as the direct cause of apoptosis induced by the compound of Formula (IIa). After 30 min treatment of the H1650 and H1975 cells, the intensity of ROS increased more than 10-fold.

[6] = tested on: H1975 cells; test: ROS generation, H1975; conditions: 4 μM, 30 min treatment
Protocol: as §4, §5

[7] = tested on: H1650 cells; test: Annexin-V/PI apoptosis assay by flow cytometry, H1650
Protocol: as §1, §2

[8] = biological target: T1, EGFR (Homo sapiens, UniProt P00533, L858R/T790M); test: Western blot of EGFR phosphorylation, H1975; conditions: H1975 cells, 1, 2, 3, 4 μM, 2 h
T1 construct: H1975 cells were planted on 6-well plate, allowed to attach for 24 h, and treated; host or cells: H1975 NSCLC adenocarcinoma cells
Protocol: H1975 cells were planted on 6-well plate, allowed to attach for 24 h, and treated with the various concentrations of the compound of Formula (Ic) for 2 h. Cells were washed twice with cold PBS then lysed in RIPA lysis buffer containing protease and phosphatase inhibitors. Protein concentration of the cell lysates was measured using the Bio-Rad protein Assay kit (Bio-Rad, 7 Philadelphia, Pa., USA). After equalizing the protein concentrations of the samples, 5× laemmli buffer was added and the samples were boiled at 100° C. for 5 min. Equal amounts of protein samples (30 μg) were subjected to SDS-PAGE of a 10% gel. The separated proteins were transferred to a nitrocellulose (NC) membrane, which was then exposed to 5% non-fat dried milk in TBS containing 0.1% Tween (0.1% TBST) for 1 h at room temperature, followed by overnight incubation at 4° C. with primary antibodies. After washing three times by TBST (5 mins/time), the membranes were incubated for 1 h at room temperature with the secondary fluorescent antibodies (1:10000 dilutions) to rabbit or mouse. The signal intensity of the membranes was detected by an LI-COR Odessy scanner (Belfast, Me., USA). Actin was used as the loading control for normalization.

[9] = 4 μM Formula (IIa) with 10 mM NAC

Compound | induction of apoptosis ([1]; H1975 cells, 1, 2, 3, 4 μM, 24 h) | cleaved Caspase-3 and cleaved PARP expression ([2]; 4 μM) | cleaved Caspase-3 and cleaved PARP expression ([3]; 4 μM) | cytotoxicity on non-cancerous lung fibroblast cells compared with NSCLC cells [4] | increase of intensity of ROS [5] | increase of intensity of ROS [6] | induction of apoptosis ([7]; H1650 cells, 1, 2, 3, 4 μM, 24 h) | EGFR phosphorylation (tyrosine 1068, 1173, 1045) [8] | effect of NAC on apoptosis induced by the compound of Formula (IIa) ([1]; H1975 cells, 4 μM Formula (IIa) in presence of NAC) | effect of NAC on apoptosis (cleaved Caspase-3, cleaved PARP) induced by Formula (IIa) [2, 9] | effect of NAC on apoptosis (cleaved Caspase-3, cleaved PARP) induced by Formula (IIa) [3, 9] | effect of NAC on apoptosis induced by the compound of Formula (IIa) ([7]; H1650 cells, 4 μM Formula (IIa) in presence of NAC)
CC(C)=CC[C@@H](O)C1=CC(=O)c2c(O)ccc(O)c2C1=O [Formula (IIa), shikonin] | significantly induced apoptosis | increase in cleaved Caspase-3 and cleaved Poly(ADP-ribose) Polymerase (PARP) | increase in cleaved Caspase-3 and cleaved Poly(ADP-ribose) Polymerase (PARP) | much lower cytotoxicity | more than 10 fold | more than 10 fold | significantly induced apoptosis | suppress EGFR phosphorylation | – | – | – | –
CC(=O)N[C@@H](CS)C(=O)O [NAC, N-acetylcystein, reference compound] | – | – | – | – | – | – | – | – | completely blocked the apoptosis | blocked | blocked | completely blocked the apoptosis
